Experimental data reported in US7893266B2, “Detection of cancer cells in vitro using sigma-2 receptor ligands as radiotracers” (Washington University, priority 2003, dated 2011).
Like-named read-outs stand apart in the source and are kept apart here. Each block holds one compound with its values, some of them ahead of it.

What was measured:
[1] = molecular target: T1, σ2 receptors in the breast tumors (Mus musculus, UniProt Q8VD00); assay: In vivo blocking studies with YUN 143 in tumor-bearing mice; settings: blocking agent YUN 143 (1 mg/kg, i.v.); time point of highest % I.D./gram tumor
T1 construct: mature Balb/c mice that were implanted with EMT-6 mammary tumors; from tissue; host or cells: EMT-6 mammary tumours in Balb/c mice, in vivo
T1 sequence (Q8VD00 1-176): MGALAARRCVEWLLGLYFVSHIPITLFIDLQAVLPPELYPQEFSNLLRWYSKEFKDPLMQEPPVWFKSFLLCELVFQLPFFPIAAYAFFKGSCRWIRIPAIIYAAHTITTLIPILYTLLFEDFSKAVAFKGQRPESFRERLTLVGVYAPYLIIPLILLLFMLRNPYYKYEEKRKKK
Source text: The blocking agent was YUN 143, which has a high affinity for σ1 and σ2 receptors. Animals were sacrificed at the time point displaying the highest % I.D./gram tumor.
The inventors then conducted blocking studies in order to confirm that the radiotracer labeled σ2 receptors in the breast tumors. […] We have previously reported that [^18F]YUN 143 labels σ1 and σ2 receptors in breast tumor xenografts (Mach et al., 2001).

[2] = tested on: EMT-6 mammary tumors; assay: Comparison with [18F]FLT in tumor-bearing mice; format: in vivo; settings: 1 hr for [11C]10; 2 hr post-i.v. injection for [76Br]6 and [125I]6i
[3] = tested on: EMT-6 mammary tumors; assay: Biodistribution in EMT-6 BALB/C mice; format: in vivo
Protocol: (§1) As used herein, the term “tumor:background ratio” (i.e., tumor:fat ratio, tumor:muscle ratio, tumor:lung ratio, tumor:blood ratio) refers to the % injected dose/g tissue of the radiotracer in the tumor divided by the % injected dose/g […] in the background tissue (i.e., fat, muscle, lung, blood).
(§2) B. Biodistribution Studies of ^11C analogs in Tumor-Bearing Mice. Biodistribution studies were conducted in mature Balb/c mice that were implanted with EMT-6 mammary tumors identified herein as EMT-6 BALB/C mice to create laboratory tumor-bearing mice. The mice were implanted in the scapular region seven days prior to the study. Animals were injected with 100-150 μCi of the ^11C-labeled radiotracer and the animals were sacrificed at 5, 30, and 60 min post-i.v. injection of the radiotracer.
(§3) A series of biodistribution studies in tumor-bearing mice were also conducted with [^76Br]8, [^76Br]6, [^125I]8i, and [^125I]6i.

[4] = Biodistribution in EMT-6 BALB/C mice; format: in vivo; settings: Balb/c, mouse, intravenous
Protocol: as §1, §2, §3

[5] = kidney, read-out: % ID per gram kidney
[6] = liver, read-out: % ID per gram liver

ratio Tumor:blood ([3]; 5 min): 1.37 ± 0.33
ratio Tumor:fat ([3]; 5 min): 2.28 ± 0.32
ratio Tumor:heart ([3]; 5 min): 0.71 ± 0.12
ratio Tumor:lung ([3]; 5 min): 0.31 ± 0.11
ratio Tumor:muscle ([3]; 5 min): 0.93 ± 0.13
ratio Tumor:blood ([3]; 30 min): 1.80 ± 0.26
ratio Tumor:fat ([3]; 30 min): 3.68 ± 1.14
ratio Tumor:heart ([3]; 30 min): 2.53 ± 0.55
ratio Tumor:lung ([3]; 30 min): 1.06 ± 0.24
ratio Tumor:muscle ([3]; 30 min): 3.18 ± 0.51
ratio Tumor:blood ([3]; 1 hour): 1.81 ± 0.11
ratio Tumor:fat ([3]; 1 hour): 5.36 ± 2.38
ratio Tumor:heart ([3]; 1 hour): 2.78 ± 0.79
ratio Tumor:lung ([3]; 1 hour): 1.28 ± 0.41
ratio Tumor:muscle ([3]; 1 hour): 2.78 ± 0.62
% ID per gram blood ([3]; 5 min): 3.09 ± 0.33 % ID per gram
% ID per gram blood ([3]; 30 min): 1.31 ± 0.11 % ID per gram
% ID per gram blood ([3]; 1 hour): 0.73 ± 0.05 % ID per gram
% ID per gram brain ([3]; 5 min): 2.29 ± 0.28 % ID per gram
% ID per gram brain ([3]; 30 min): 0.28 ± 0.03 % ID per gram
% ID per gram brain ([3]; 1 hour): 0.15 ± 0.01 % ID per gram
% ID per gram fat ([3]; 5 min): 1.88 ± 0.50 % ID per gram
% ID per gram fat ([3]; 30 min): 0.68 ± 0.19 % ID per gram
% ID per gram fat ([3]; 1 hour): 0.33 ± 0.24 % ID per gram
% ID per gram heart ([3]; 5 min): 5.86 ± 0.47 % ID per gram
% ID per gram heart ([3]; 30 min): 0.95 ± 0.17 % ID per gram
% ID per gram heart ([3]; 1 hour): 0.50 ± 0.11 % ID per gram
% ID per gram kidney ([3]; 5 min): 20.50 ± 1.86 % ID per gram
% ID per gram kidney ([3]; 30 min): 4.12 ± 0.51 % ID per gram
% ID per gram kidney ([3]; 1 hour): 2.26 ± 0.36 % ID per gram
% ID per gram liver ([3]; 5 min): 12.32 ± 1.73 % ID per gram
% ID per gram liver ([3]; 30 min): 9.65 ± 2.00 % ID per gram
% ID per gram liver ([3]; 1 hour): 3.00 ± 0.21 % ID per gram
% ID per gram lung ([3]; 5 min): 14.02 ± 1.40 % ID per gram
% ID per gram lung ([3]; 30 min): 2.27 ± 0.42 % ID per gram
% ID per gram lung ([3]; 1 hour): 1.09 ± 0.26 % ID per gram
% ID per gram muscle ([3]; 5 min): 4.49 ± 0.45 % ID per gram
% ID per gram muscle ([3]; 30 min): 0.75 ± 0.13 % ID per gram
% ID per gram muscle ([3]; 1 hour): 0.49 ± 0.11 % ID per gram
% ID per gram tumor ([3]; 5 min): 4.22 ± 1.01 % ID per gram
% ID per gram tumor ([3]; 30 min): 2.35 ± 0.27 % ID per gram
% ID per gram tumor ([3]; 1 hour): 1.32 ± 0.17 % ID per gram
Structure (SMILES): COc1cc2c(cc1OC)CN(CCCCNC(=O)c1cc(C)cc(OC)c1O[11CH3])CC2 [[^11C]10]
in vivo blocking study result [1]: consistent with the labeling of σ2 receptors in vivo
tumor:background ratios compared with [18F]FLT [2]: tumor:lung and tumor:fat ratios equal to [^18F]FLT and tumor:blood, tumor:muscle and tumor:heart ratios that are greater than that of [18F]FLT

ratio Tumor:blood ([3]; 5 min): 1.73 ± 0.46
ratio Tumor:fat ([3]; 5 min): 1.00 ± 0.20
ratio Tumor:heart ([3]; 5 min): 0.61 ± 0.07
ratio Tumor:lung ([3]; 5 min): 0.15 ± 0.02
ratio Tumor:muscle ([3]; 5 min): 0.98 ± 0.13
ratio Tumor:blood ([3]; 30 min): 2.07 ± 0.32
ratio Tumor:fat ([3]; 30 min): 2.62 ± 0.27
ratio Tumor:heart ([3]; 30 min): 2.32 ± 0.18
ratio Tumor:lung ([3]; 30 min): 0.82 ± 0.09
ratio Tumor:muscle ([3]; 30 min): 3.94 ± 0.55
ratio Tumor:blood ([3]; 1 hour): 2.44 ± 0.53
ratio Tumor:fat ([3]; 1 hour): 4.85 ± 0.67
ratio Tumor:heart ([3]; 1 hour): 3.89 ± 0.08
ratio Tumor:lung ([3]; 1 hour): 1.66 ± 0.17
ratio Tumor:muscle ([3]; 1 hour): 4.26 ± 0.74
ratio Tumor:blood ([3]; 2 hour): 2.83 ± 1.62
ratio Tumor:fat ([3]; 2 hour): 5.86 ± 2.93
ratio Tumor:heart ([3]; 2 hour): 4.85 ± 2.31
ratio Tumor:lung ([3]; 2 hour): 1.99 ± 1.04
ratio Tumor:muscle ([3]; 2 hour): 6.99 ± 4.44
ratio Tumor:blood ([3]; 4 hour): 3.11 ± 0.85
ratio Tumor:fat ([3]; 4 hour): 9.59 ± 4.55
ratio Tumor:heart ([3]; 4 hour): 5.91 ± 1.65
ratio Tumor:lung ([3]; 4 hour): 2.83 ± 0.19
ratio Tumor:muscle ([3]; 4 hour): 8.98 ± 3.01
% ID per gram blood ([3]; 5 min): 2.37 ± 0.26 % ID per gram
% ID per gram blood ([3]; 30 min): 2.19 ± 0.16 % ID per gram
% ID per gram blood ([3]; 1 hour): 1.52 ± 0.49 % ID per gram
% ID per gram blood ([3]; 2 hour): 0.65 ± 0.07 % ID per gram
% ID per gram blood ([3]; 4 hour): 0.29 ± 0.11 % ID per gram
% ID per gram brain ([3]; 5 min): 1.53 ± 0.14 % ID per gram
% ID per gram brain ([3]; 30 min): 0.39 ± 0.03 % ID per gram
% ID per gram brain ([3]; 1 hour): 0.15 ± 0.03 % ID per gram
% ID per gram brain ([3]; 2 hour): 0.06 ± 0.01 % ID per gram
% ID per gram brain ([3]; 4 hour): 0.02 ± 0.01 % ID per gram
% ID per gram fat ([3]; 5 min): 4.15 ± 0.91 % ID per gram
% ID per gram fat ([3]; 30 min): 1.73 ± 0.20 % ID per gram
% ID per gram fat ([3]; 1 hour): 0.74 ± 0.17 % ID per gram
% ID per gram fat ([3]; 2 hour): 0.33 ± 0.08 % ID per gram
% ID per gram fat ([3]; 4 hour): 0.10 ± 0.05 % ID per gram
% ID per gram heart ([3]; 5 min): 6.55 ± 0.54 % ID per gram
% ID per gram heart ([3]; 30 min): 1.94 ± 0.09 % ID per gram
% ID per gram heart ([3]; 1 hour): 0.91 ± 0.10 % ID per gram
% ID per gram heart ([3]; 2 hour): 0.40 ± 0.05 % ID per gram
% ID per gram heart ([3]; 4 hour): 0.15 ± 0.04 % ID per gram
% ID per gram kidney ([3]; 5 min): 29.51 ± 2.23 % ID per gram
% ID per gram kidney ([3]; 30 min): 13.69 ± 0.35 % ID per gram
% ID per gram kidney ([3]; 1 hour): 5.94 ± 1.22 % ID per gram
% ID per gram liver ([3]; 5 min): 13.20 ± 2.04 % ID per gram
% ID per gram liver ([3]; 30 min): 8.77 ± 0.88 % ID per gram
% ID per gram liver ([3]; 1 hour): 4.24 ± 0.60 % ID per gram
% ID per gram lung ([3]; 5 min): 27.13 ± 1.61 % ID per gram
% ID per gram lung ([3]; 30 min): 5.50 ± 0.62 % ID per gram
% ID per gram lung ([3]; 1 hour): 2.12 ± 0.19 % ID per gram
% ID per gram lung ([3]; 2 hour): 1.01 ± 0.18 % ID per gram
% ID per gram muscle ([3]; 5 min): 4.10 ± 0.33 % ID per gram
% ID per gram muscle ([3]; 30 min): 1.21 ± 0.17 % ID per gram
% ID per gram muscle ([3]; 1 hour): 0.87 ± 0.22 % ID per gram
% ID per gram muscle ([3]; 2 hour): 0.31 ± 0.10 % ID per gram
% ID per gram muscle ([3]; 4 hour): 0.10 ± 0.04 % ID per gram
% ID per gram tumor ([3]; 5 min): 4.02 ± 0.55 % ID per gram
% ID per gram tumor ([3]; 30 min): 4.50 ± 0.43 % ID per gram
% ID per gram tumor ([3]; 1 hour): 3.53 ± 0.42 % ID per gram
% ID per gram tumor ([3]; 2 hour): 1.88 ± 0.76 % ID per gram
% ID per gram tumor ([3]; 4 hour): 0.82 ± 0.09 % ID per gram
tissue uptake at 2 h [4, 5]: 2.45 ± 0.25 %ID/g
tissue uptake at 4 h [4, 5]: 0.63 ± 0.11 %ID/g
tissue uptake at 2 h [4, 6]: 1.91 ± 0.2 %ID/g
tissue uptake at 4 h [4, 6]: 0.9 ± 0.21 %ID/g
tissue uptake at 4 h ([4]; lung, read-out: % ID per gram lung): 0.29 ± 0.05 %ID/g
Structure (SMILES): COc1cc2c(cc1OC)CN(CCCCNC(=O)c1cc([125I])cc(OC)c1OC)CC2 [[^125I]6i]
in vivo blocking study result [1]: consistent with the labeling of σ2 receptors in vivo
